Assay results published in patent publication US20100129434A1, “COMPOSITIONS AND METHODS FOR THE TREATMENT OF MUCORMYCOSIS AND OTHER FUNGAL DISEASES” (priority 2006, published 2010).
Converted amounts (≈) assume the structure as drawn. Read-outs that look alike come from different tables or passages of the source.

Experiments:
[1] = test system: R. oryzae 99-892; test: Kidney histopathology of DKA mice infected with R. oryzae; assay type: in vivo; details: 10 mg/kg bid
Method: For in vivo infection, BALB/c male mice (>20 g) were rendered diabetic with a single i.p. injection of 210 mg/kg streptozotocin in 0.2 ml citrate buffer 10 days prior to fungal challenge. Glycosuria and ketonuria were confirmed in all mice 7 days after streptozotocin treatment. For neutropenic mouse model, mice were injected with a single i.p. dose of 200 mg/kg cyclolphosphamide (Bristol Myer Squibb) 2 days prior to infection with R. oryzae. […] Mice were infected through the tail vein with the appropriate inocula of R. oryzae. To confirm the inocula, dilutions were streaked on PDA plates containing 0.1% triton and colonies were counted following a 24 h incubation period at 37° C. The primary efficacy endpoint was time to death. As a secondary endpoint, brain fungal burden (the primary target organ) was determined by homogenization by rolling a pipette on organs placed in Whirl-Pak™ bags (Nasco®, Fort Atkinson, Wis.) containing 1 ml saline. The homogenate was serially diluted in 0.85% saline and then quantitatively cultured on PDA. Values were expressed as log10 cfu g−1 tissue. […]
To determine the impact of deferasirox on tissue fungal burden, diabetic ketoacidotic mice were infected via the tail-vein with 4.2×10^4 spores of R. oryzae 99-892. […] Kidneys and brains were removed on day four, homogenized, and quantitatively cultured.

[2] = test system: Mucor spp.; test: Deferasirox susceptibility testing (MIC/MFC), Mucor clinical isolates; assay type: cell-based
Method: Minimum inhibitory concentration (MIC) and minimum fungicidal concentration (MFC) were determined for deferasirox by the method of Espinel-Ingroff using R. oryzae spores starved for iron (Espinel-Ingroff, (2001), supra). Cidality was defined as a <4-fold difference between MIC and MFC.
We next determined the deferasirox susceptibilities of multiple clinical isolates of Mucorales (Table 3). The MIC9OS of deferasirox against Mucor, non-oryzae Rhizopus spp., and R. oryzae were 3.12 to 6.25 μg/ml. MFCs were similar to MICs, and deferasirox was cidal for 28/29 (97%) of isolates. Of note, slight growth was seen within the first twelve hours even at extremely high concentrations of deferasirox. […] Furthermore, the MICs and MFCs of deferasirox against these isolates were well below clinically achievable peak (˜38 μg/ml) and trough serum levels (˜17 μg/ml) of the drug at steady state when administered at the FDA-approved starting dose (20 mg/kg/d).

[3] = test system: R. oryzae; test: Survival of neutropenic mice infected with R. oryzae; assay type: in vivo
Method: For in vivo infection, BALB/c male mice (>20 g) were rendered diabetic with a single i.p. injection of 210 mg/kg streptozotocin in 0.2 ml citrate buffer 10 days prior to fungal challenge. […] For neutropenic mouse model, mice were injected with a single i.p. dose of 200 mg/kg cyclolphosphamide (Bristol Myer Squibb) 2 days prior to infection with R. oryzae. […] Mice were infected through the tail vein with the appropriate inocula of R. oryzae. To confirm the inocula, dilutions were streaked on PDA plates containing 0.1% triton and colonies were counted following a 24 h incubation period at 37° C. The primary efficacy endpoint was time to death. As a secondary endpoint, brain fungal burden (the primary target organ) was determined by homogenization by rolling a pipette on organs placed in Whirl-Pak™ bags (Nasco®, Fort Atkinson, Wis.) containing 1 ml saline. The homogenate was serially diluted in 0.85% saline and then quantitatively cultured on PDA. Values were expressed as log10 cfu g−1 tissue. Finally, for histopathological analysis, infected organs were collected from mice and fixed in 10% zinc formalin. Fixed tissues were embedded in paraffin, and […] sections were stained with haematoxylin and eosin for light microscopy examination. All procedures involving mice were approved by the institutional animal use and care committee, following the National Institutes of Health guidelines for animal housing and care.
Two days later, mice were infected via the tail-vein with 2.7×10^3 spores of R. oryzae 99-892.

[4] = iron overloaded patients, cited from earlier work
[5] = Deferasirox toxicity studies in neutropenic mice; assay type: in vivo; details: uninfected neutropenic mice
Method: Toxicity of deferasirox in neutropenic mice was evaluated. Mice were rendered neutropenic as above and treated with deferasirox at 10 mg/kg twice every day or every other day for 7 days. Mice from three different groups (i.e. placebo, deferasirox daily treatment, and deferasirox every other day treatment) were sacrificed on day 3 or 8 and blood was collected and sent for Charles River Laboratories for evaluation. Additionally, bone marrow smears were prepared from femurs, and tissues were collected, preserved in zinc-buffered formalin, embedded in paraffin, sectioned at 5 μm, and stained with hematoxylin and eosin. The resulting slides were examined by a board-certified veterinary pathologist at Charles River Laboratories.
Because deferasirox dosing every other day was optimal in the neutropenic model, we sought to identify any potential toxicity caused by daily dosing of deferasirox in neutropenic mice. Mice were made neutropenic with cyclophosphamide as above, but were not infected. The mice were treated with deferasirox 10 mg/kg twice daily for seven days, 10 mg/kg twice every other day for 4 doses, or placebo. Terminal bleeds were performed on day 3 or day 8 to measure complete blood count, serum chemistries, and liver function tests. […]

For O=C(O)c1ccc(-n2nc(-c3ccccc3O)nc2-c2ccccc2O)cc1 [Deferasirox, 4-[3,5-Bis(2-hydroxyphenyl)-1H-1,2,4-triazol-1-yl]-benzoic acid], the “hyphae in kidneys by histopathology” value [1] was “no visible hyphae”, the “neutrophil influx in the kidneys” value [1] was “prominent” and the “Fungicidal?” value ([2]; Mucor 97-1083, 24 h) was “Y (Cidal = MFC/MIC ≦ 4)”. For the same compound, the “Fungicidal?” value ([2]; Mucor 97-1083, 48 h) was “Y (Cidal = MFC/MIC ≦ 4)”, the “Fungicidal?” value ([2]; Mucor ramosissumus 97-1192, 24 h) was “Y (Cidal = MFC/MIC ≦ 4)” and the MFC ([2]; Mucor ramosissumus 97-1192, 24 h, read-out: MFC) was 0.78 µg/mL (≈ 2.09 µM). For the same compound, the MIC ([2]; Mucor ramosissumus 97-1192, 24 h, read-out: MIC) was 0.78 µg/mL (≈ 2.09 µM), the “Fungicidal?” value ([2]; Mucor ramosissumus 97-1192, 48 h) was “Y (Cidal = MFC/MIC ≦ 4)” and the MFC ([2]; Mucor ramosissumus 97-1192, 48 h, read-out: MFC) was 0.78 µg/mL (≈ 2.09 µM). For the same compound, the MIC ([2]; Mucor ramosissumus 97-1192, 48 h, read-out: MIC) was 0.78 µg/mL (≈ 2.09 µM), the “Fungicidal?” value ([2]; Mucor sp. 99-932, 24 h) was “Y (Cidal = MFC/MIC ≦ 4)” and the “Fungicidal?” value ([2]; Mucor sp. 99-932, 48 h) was “Y (Cidal = MFC/MIC ≦ 4)”. The “Fungicidal?” value ([2]; Mucor spp. MIC90/MFC90, 24 h) was “Y (Cidal = MFC/MIC ≦ 4)”, the MFC90 ([2]; Mucor spp. MIC90/MFC90, 24 h) was 3.12 µg/mL (≈ 8.36 µM) and the “Fungicidal?” value ([2]; Mucor spp. MIC90/MFC90, 48 h) was “Y (Cidal = MFC/MIC ≦ 4)”. For the same compound, the MFC90 ([2]; Mucor spp. MIC90/MFC90, 48 h) was 3.12 µg/mL (≈ 8.36 µM), the MIC90 ([2]; Mucor, 24 h) was 3.12 µg/mL (≈ 8.36 µM) and the MFC ([2]; Mucor, 24 h, Mucor 97-1083) was 3.12 µg/mL (≈ 8.36 µM). For the same compound, the MIC ([2]; Mucor, 24 h, Mucor 97-1083) was 3.12 µg/mL (≈ 8.36 µM), the MFC ([2]; Mucor, 24 h, Mucor sp. 99-932) was 3.12 µg/mL (≈ 8.36 µM) and the MIC ([2]; Mucor, 24 h, Mucor sp. 99-932) was 3.12 µg/mL (≈ 8.36 µM). It also gave an MIC90 ([2]; Mucor, 48 h) of 3.12 µg/mL (≈ 8.36 µM), an MFC ([2]; Mucor, 48 h, Mucor 97-1083) of 3.12 µg/mL (≈ 8.36 µM) and an MIC ([2]; Mucor, 48 h, Mucor 97-1083) of 3.12 µg/mL (≈ 8.36 µM). The MFC ([2]; Mucor, 48 h, Mucor sp. 99-932) was 3.12 µg/mL (≈ 8.36 µM), the MIC ([2]; Mucor, 48 h, Mucor sp. 99-932) was 3.12 µg/mL (≈ 8.36 µM) and the “time to death compared to placebo” value ([3]; 2.7×10^3 spores R. oryzae 99-892, 10 mg/kg twice qod, five doses from 24 h post infection) was “significantly improved time to death”. The “time to death versus placebo” value ([3]; R. oryzae 99-892, dosed twice daily) was “did not significantly improve time to death”, the tolerability ([4]; chronic dosing over months to years, up to 30 mg/kg/d) was “very well tolerated” and the tolerability ([4]; up to 40 mg/kg/d for up to 12 days) was “very well tolerated”. For the same compound, the “white cell, neutrophil, platelet counts, hemoglobin, serum chemistries, liver function tests versus placebo” value ([5]; 10 mg/kg twice daily 7 days or twice every other day 4 doses, day 3 or 8) was “No differences” and the “organ toxicity by histopathology” value ([5]; 10 mg/kg twice daily or twice every other day) was “no organ-specific toxicity attributable to deferasirox”.
